Assay results published in patent US20240158348A1, “HERBICIDAL CYCLIC AMIDES N-SUBSTITUTED WITH A HALOALKYLSULFONYLANILIDE GROUP” (FMC Corporation, priority 2021, published 2024).

Key:
Format in all cases: in vivo
[1] = tested on: pigweed, redroot (redroot pigweed, Amaranthus retroflexus); test: Test A preemergence, redroot pigweed; conditions: 0 to 100 scale, 10 days
Excerpt: (§1) Seeds of plant species selected from barnyardgrass (Echinochloa crus-galli), blackgrass (Alopecurus myosuroides), corn (Zea mays), foxtail, giant (giant foxtail, Setaria faberi), goosegrass (Eleusine indica), kochia (Bassia scoparia), oat, wild (wild oat, Avena fatua), pigweed, palmer (palmer amaranth, Amaranthus palmeri), pigweed, redroot (redroot pigweed, Amaranthus retroflexus), ragweed (common ragweed, Ambrosia artemisiifolia), ryegrass, Italian (Italian ryegrass, Lolium multiflorum), soybean (Glycine max), and wheat (Triticum aestivum) were planted into a blend of loam soil and sand and treated preemergence with a directed soil spray using test chemicals formulated in a non-phytotoxic solvent mixture which included a surfactant.
(§2) At the same time, plants selected from these crop and weed species and also galium (catchweed bedstraw, Galium aparine) and horseweed (Erigeron canadensis) were planted in pots containing the same blend of loam soil and sand and treated with postemergence applications of test chemicals formulated in the same manner. Plants ranged in height from 2 to 10 cm and were in the one- to two-leaf stage for the postemergence treatment. Treated plants and untreated controls were maintained in a greenhouse for 10 days, after which time all treated plants were compared to untreated controls and visually evaluated for injury. Plant response ratings, summarized in Table A, are based on a 0 to 100 scale where 0 is no effect and 100 is complete control. A dash (-) response means no test result.

[2] = tested on: pigweed, redroot (redroot pigweed, Amaranthus retroflexus); test: Test A postemergence, redroot pigweed; conditions: 0 to 100 scale, 10 days
Excerpt: as §1, §2

[3] = tested on: barnyardgrass (Echinochloa crus-galli); test: Test A postemergence, barnyardgrass; conditions: 0 to 100 scale, 10 days
Excerpt: as §1, §2

[4] = tested on: barnyardgrass (Echinochloa crus-galli); test: Test A preemergence, barnyardgrass; conditions: 10 days
Excerpt: as §1, §2

[5] = tested on: horseweed (Erigeron canadensis); test: Test A postemergence, horseweed; conditions: 0 to 100 scale, 10 days
Excerpt: as §1, §2

[6] = 125 g ai/ha, 0 to 100 scale (0 no effect, 100 complete control)

| SMILES | Plant response rating, Pigweed, Redroot ([1]; 31 g ai/ha) | Plant response rating, Pigweed, Redroot ([1]; 125 g ai/ha) | Plant response rating, Pigweed, Redroot ([2]; 31 g ai/ha) | Plant response rating, Pigweed, Redroot ([2]; 125 g ai/ha) | Plant response rating, Barnyardgrass ([3]; 31 g ai/ha) | Plant response rating, Barnyardgrass ([3]; 125 g ai/ha) | Plant response rating, Barnyardgrass ([4]; 31 g ai/ha, 0 to 100 scale) | Plant response rating, Barnyardgrass [4, 6] | Plant response rating, Horseweed ([5]; 31 g ai/ha) | Plant response rating, Horseweed ([5]; 125 g ai/ha) |
| --- | --- | --- | --- | --- | --- | --- | --- | --- | --- | --- |
| C#CCOC1CCN(c2cc(NS(=O)(=O)C(F)(F)F)c(C)cc2C)C1=O (stereo not drawn) [Compound 1, N-[2,4-dimethyl-5-[2-oxo-3-(2-propyn-1-yloxy)-1-pyrrolidinyl]phenyl]-1,1,1-trifluoromethanesulfonamide] | 90 | 100 | 80 | 90 | 80 | 90 | 80 | 100 | – | – |
| C=CCOC1CCN(c2cc(NS(=O)(=O)C(F)(F)F)c(C)cc2C)C1=O (stereo not drawn) [Compound 2, N-[2,4-dimethyl-5-[2-oxo-3-(2-propen-1-yloxy)-1-pyrrolidinyl]phenyl]-1,1,1-trifluoromethanesulfonamide] | 90 | 100 | 90 | 90 | 30 | 90 | 0 | 100 | – | – |
| Cc1cc(C)c(N2CCC(OC3CC3)C2=O)cc1NS(=O)(=O)C(F)(F)F (stereo not drawn) [Compound 3, N-[5-[3-(cyclopropyloxy)-2-oxo-1-pyrrolidinyl]-2,4-dimethylphenyl]-1,1,1-trifluoromethanesulfonamide] | – | – | – | – | – | – | – | – | 70 | 90 |
| Cc1cc(C)c(N2CCC(OC3CCC3)C2=O)cc1NS(=O)(=O)C(F)(F)F (stereo not drawn) [Compound 4, N-[5-[3-(cyclobutyloxy)-2-oxo-1-pyrrolidinyl]-2,4-dimethylphenyl]-1,1,1-trifluoromethanesulfonamide] | – | – | – | – | – | – | – | – | 90 | 100 |
| Cc1cc(C)c(N(COC(=O)C(C)(C)C)S(=O)(=O)C(F)(F)F)cc1N1CCC(OC2CC2)C1=O (stereo not drawn) [Compound 7, [[5-[3-(cyclopropyloxy)-2-oxo-1-pyrrolidinyl]-2,4-dimethylphenyl][(trifluoromethyl)sulfonyl]amino]methyl 2,2-dimethylpropanoate] | – | – | – | – | – | – | – | – | 80 | 90 |
| Cc1cc(C)c(N(COC(=O)C(C)(C)C)S(=O)(=O)C(F)(F)F)cc1N1CCC(OC2CCC2)C1=O (stereo not drawn) [Compound 8, [[5-[3-(cyclobutyloxy)-2-oxo-1-pyrrolidinyl]-2,4-dimethylphenyl][(trifluoromethyl)sulfonyl]amino]methyl 2,2-dimethylpropanoate] | – | – | – | – | – | – | – | – | 70 | 90 |
